In brackets after ≈: the same amount, converted by molar mass.
Tests used:
[1] = Metabolic stability experiment of mouse liver microsomes; assay type: in vitro ADME
Experimental: PB solution (100 mM), MgCl2 solution (300 mM), NADPH solution (2.04 mM), and mouse liver microsome (SHQY catalog number: M1000, batch number: 2110330) solution (1.00 mg/mL) were prepared respectively. […] Then, 100 µL of mouse liver microsome solution was added to a 96-well sample plate. For the 0 min sample, acetonitrile solution containing the internal standard was first added; then, 2 µL of 100 µM working solution was added; followed by the addition of 98 µL of pre-warmed 2.04 mM NADPH at 37°C. For the 5 min, 15 min, 30 min, 45 min, and 60 min samples, 2 µL of 100 µM working solution was first added; followed by the addition of 98 µL of pre-warmed 2.04 mM NADPH at 37°C to initiate the reaction; upon reaching the respective time points, a solution of acetonitrile containing the internal standard was added to terminate the reaction. For the NCF60 sample, 2 µL of 100 µM working solution was first added; followed by the addition of 98 µL of pre-warmed PB at 37°C to initiate the reaction; upon reaching the respective time points, a solution of acetonitrile containing the internal standard was added to terminate the reaction. During the experiment, all samples were incubated in a 37°C water bath. All samples were shaken on an oscillator at 800 rpm for 10 min, then centrifuged at 3200 g for 20 min. The supernatant was aspirated, diluted with deionized water at the corresponding ratio, and analyzed by LC-MS/MS. The remaining percentage of the compound at each time point was obtained by dividing the peak area ratio of the compound at 5, 15, 30, 45, and 60 min by the peak area ratio at 0 min. The half-life (T1/2) of the compound was then calculated using Excel. Table 2: Mouse liver microsome stability results of compounds from some examples

SREBP pathway = assay: SREBP luciferase reporter gene system (SRE-luciferase assay); assay type: cell-based, human; conditions: Homo sapiens, Huh-7, 16 h, Huh-7/SRE-luc cells, sterol-deficient medium, 0.01-10 µM
Method in brief: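 Huh-7 cells stably carrying LDLR promoter-luciferase plus GFP were treated 16 h in sterol-deficient medium (5% lipoprotein-deficient serum, 2 µM lovastatin, 10 µM mevalonic acid) at 0.01–10 µM. Luciferase/GFP ratio measured as pathway activity; inhibition versus DMSO fitted to a four-parameter model for IC50.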

[2] = Solubility in fasted-state simulated intestinal fluid (FaSSIF); assay type: physicochemical; conditions: FaSSIF, pH 6.5, fassif, kinetic from dmso stock, FaSSIF pH 6.5, 300 µM sample solution, room temperature
Method in brief: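 Compound from 10.0 mM DMSO stock added to FaSSIF (phosphate/NaCl buffer, pH 6.5) at 300 µM nominal, shaken 1 h at room temperature, 1000 rpm. After centrifugation, supernatant concentration quantified by LC-MS/MS.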

[3] = test system: Fatty Acid Synthase (FASN) gene; assay: Inhibition of FASN gene expression (qPCR) in Huh-7 cells; assay type: cell-based, human; conditions: Homo sapiens, Huh-7, 16 h, Huh-7 cells, starvation medium, 16 hours, qPCR; class symbols; read-out: FASN IC50
Method in brief: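 Huh-7 cells switched to starvation DMEM (5% LPDS, 2 µM lovastatin, 10 µM mevalonate) and treated 16 h with compound, top 3000 nM, 3-fold dilutions, 5 concentrations. FASN mRNA by RT-qPCR; inhibition relative to DMSO, IC50 from four-parameter fit.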

Row | Compound | half-life at 1 µM [1] [h] | IC50 (SREBP pathway) [µM] | solubility at 1 h [2] [µM] | IC50 [3] [nM]
1 | COc1cccc(C(O)CCC[C@@H](C)[C@H]2CC[C@H]3[C@H]4[C@H](CC[C@]23C)[C@@]2(C)CC[C@H](O)[C@H](O)[C@@H]2CC4(F)F)c1 (stereo partly drawn) [Compound 39, (1R,3aS,3bS,5aR,6R,7S,9aR,9bS,11aR)-4,4-difluoro-1-[(2R)-6-hydroxy-6-(3-methoxyphenyl)hexan-2-yl]-9a,11a-dimethylhexadecahydro-1H-cyclopenta[1,2-a]phenanthrene-6,7-diol] | 1.95 | 0.19 | 177 (≈ 94.6 µg/mL) | –
2 | COc1cc(F)cc(F)c1C(O)CCC[C@@H](C)[C@H]1CC[C@H]2[C@H]3[C@H](CC[C@]12C)[C@@]1(C)CC[C@H](O)[C@H](O)[C@@H]1CC3(F)F (stereo partly drawn) [Compound 98, (1R,3aS,3bS,5aR,6R,7S,9aR,9bS,11aR)-1-[(2R)-6-(4,6-difluoro-2-methoxyphenyl)-6-hydroxyhexan-2-yl]-4,4-difluoro-9a,11a-dimethylhexadecahydro-1H-cyclopenta[1,2-a]phenanthrene-6,7-diol] | 4.17 | 0.095 | 199 (≈ 114 µg/mL) | < 200
3 | COc1c(F)cccc1C(O)CCC[C@@H](C)[C@H]1CC[C@H]2[C@H]3[C@H](CC[C@]12C)[C@@]1(C)CC[C@H](O)[C@H](O)[C@@H]1CC3(F)F (stereo partly drawn) [Compound 46, (1R,3aS,3bS,5aR,6R,7S,9aR,9bS,11aR)-4,4-difluoro-1-[(2R)-6-(2-methoxy-3-fluorophenyl)-6-hydroxyhexan-2-yl]-9a,11a-dimethylhexadecahydro-1H-cyclopenta[1,2-a]phenanthrene-6,7-diol] | 2.6 | 0.07 | 277 (≈ 153 µg/mL) | –
4 | COc1nc(F)ccc1C(O)CCC[C@@H](C)[C@H]1CC[C@H]2[C@H]3[C@H](CC[C@]12C)[C@@]1(C)CC[C@H](O)[C@H](O)[C@@H]1CC3(F)F (stereo partly drawn) [Compound 108, (1R,3aS,3bS,5aR,6R,7S,9aR,9bS,11aR)-4,4-difluoro-1-[(2R)-6-(6-fluoro-2-methoxypyridin-3-yl)-6-hydroxyhexan-2-yl]-9a,11a-dimethylhexadecahydro-1H-cyclopenta[1,2-a]phenanthrene-6,7-diol] | 3.08 | 0.0359 | 303 (≈ 168 µg/mL) | < 200
5 | C[C@H](CCCC(O)c1cccc(F)c1)[C@H]1CC[C@H]2[C@H]3[C@H](CC[C@]12C)[C@@]1(C)CC[C@H](O)[C@H](O)[C@@H]1CC3(F)F (stereo partly drawn) [Compound 44, (1R,3aS,3bS,5aR,6R,7S,9aR,9bS,11aR)-4,4-difluoro-1-[(2R)-6-(3-fluorophenyl)-6-hydroxyhexan-2-yl]-9a,11a-dimethylhexadecahydro-1H-cyclopenta[1,2-a]phenanthrene-6,7-diol] | > 3.1 | 0.152 | 225 (≈ 118 µg/mL) | –
6 | COc1cccc(C(O)CCC[C@@H](C)[C@H]2CC[C@H]3[C@H]4[C@H](CC[C@]23C)[C@@]2(C)CC[C@H](O)[C@H](O)[C@@H]2CC4(F)F)c1F (stereo partly drawn) [Compound 63, (1R,3aS,3bS,5aR,6R,7S,9aR,9bS,11aR)-4,4-difluoro-1-[(2R)-6-(2-fluoro-3-methoxyphenyl)-6-hydroxyhexan-2-yl]-9a,11a-dimethylhexadecahydro-1H-cyclopenta[1,2-a]phenanthrene-6,7-diol] | > 3.08 | 0.121 | 147 (≈ 81.1 µg/mL) | < 200
7 | COc1cc(F)ccc1[C@H](O)CCC[C@@H](C)[C@H]1CC[C@H]2[C@H]3[C@H](CC[C@]12C)[C@@]1(C)CC[C@H](O)[C@H](O)[C@@H]1CC3(F)F [Compound 141, (1R,3aS,3bS,5aR,6R,7S,9aR,9bS,11aR)-4,4-difluoro-1-[(2R,6R)-6-(4-fluoro-2-methoxyphenyl)-6-hydroxyhexan-2-yl]-9a,11a-dimethylhexadecahydro-1H-cyclopenta[1,2-a]phenanthrene-6,7-diol] | 4.85 | 0.017 | 150 (≈ 82.9 µg/mL) | < 200
8 | COc1ccc(C(O)CCC[C@@H](C)[C@H]2CC[C@H]3[C@H]4[C@H](CC[C@]23C)[C@@]2(C)CC[C@H](O)[C@H](O)[C@@H]2CC4(F)F)cc1 (stereo partly drawn) [Compound 50, (1R,3aS,3bS,5aR,6R,7S,9aR,9bS,11aR)-4,4-difluoro-1-[(2R)-6-(4-methoxyphenyl)-6-hydroxyhexan-2-yl]-9a,11a-dimethylhexadecahydro-1H-cyclopenta[1,2-a]phenanthrene-6,7-diol] | 1.8 | 0.188 | 248 (≈ 132 µg/mL) | –
9 | COc1c(F)cccc1C(O)CCC[C@@H](C)[C@H]1CC[C@H]2[C@@H]3CC[C@H]4[C@@H](O)[C@@H](O)CC[C@]4(C)[C@H]3CC[C@]12C (stereo partly drawn) [Compound 7, 24-[(3-Fluoro-2-methoxyphenyl)(hydroxy)methyl]-5α-cholane-3β,4β-diol] | 0.624 | 0.07 | – | 200 to 500
10 | C[C@H](CCCC(O)c1ccccc1OC(F)(F)F)[C@H]1CC[C@H]2[C@H]3[C@H](CC[C@]12C)[C@@]1(C)CC[C@H](O)[C@H](O)[C@@H]1CC3(F)F (stereo partly drawn) [Compound 1, (1R,3aS,3bS,5aR,6R,7S,9aR,9bS,11aR)-4,4-difluoro-1-[(2R)-6-hydroxy-6-{2-[(trifluoromethyl)oxy]phenyl}hexan-2-yl]-9a,11a-dimethylhexadecahydro-1H-cyclopenta[1,2-a]phenanthrene-6,7-diol] | 2.78 | 0.33 | 140 (≈ 82.4 µg/mL) | –
11 | COc1ccccc1C(O)CCC[C@@H](C)[C@H]1CC[C@H]2[C@H]3[C@H](CC[C@]12C)[C@@]1(C)CC[C@H](O)CC1CC3(F)F (stereo partly drawn) [Compound 72, (1R,3aS,3bR,7S,9aS,9bS,11aR)-4,4-difluoro-1-[(2R)-6-hydroxy-6-(2-methoxyphenyl)hexan-2-yl]-9a,11a-dimethylhexadecahydro-1H-cyclopenta[1,2-a]phenanthren-7-ol] | 1.38 | 0.14 | – | < 200
12 | COc1cccc([C@H](O)CCC[C@@H](C)[C@H]2CC[C@H]3[C@H]4[C@H](CC[C@]23C)[C@@]2(C)CC[C@H](O)[C@H](O)[C@@H]2CC4(F)F)c1OC [Compound 71, (1R,3aS,3bS,5aR,6R,7S,9aR,9bS,11aR)-1-[(2R,6R)-6-(2,3-dimethoxyphenyl)-6-hydroxyhexan-2-yl]-4,4-difluoro-9a,11a-dimethylhexadecahydro-1H-cyclopenta[1,2-a]phenanthrene-6,7-diol] | 1.05 | 0.083 | – | < 200
13 | C[C@H](CCCC(O)c1c(F)cccc1F)[C@H]1CC[C@H]2C3=C(F)C[C@H]4[C@@H](O)[C@@H](O)CC[C@]4(C)[C@H]3CC[C@]12C (stereo partly drawn) [Compound 21, (1R,3aR,5aR,6R,7S,9aR,9bR,11aR)-1-[(2R)-6-(2,6-difluorophenyl)-6-hydroxyhexan-2-yl]-4-fluoro-9a,11a-dimethyl-2,3,3a,5,5a,6,7,8,9,9a,9b,10,11,11a-tetradecahydro-1H-cyclopenta[1,2-a]phenanthrene-6,7-diol] | 2.69 | 0.23 | 246 (≈ 128 µg/mL) | –
14 | COc1ccccc1C(O)CCC[C@@H](C)[C@H]1CC[C@H]2C3=C(F)C[C@H]4[C@@H](O)[C@@H](O)CC[C@]4(C)[C@H]3CC[C@]12C (stereo partly drawn) [Compound 38, (1R,3aR,5aR,6R,7S,9aR,9bR,11aR)-4-fluoro-1-[(2R)-6-hydroxy-6-(2-methoxyphenyl)hexan-2-yl]-9a,11a-dimethyl-2,3,3a,5,5a,6,7,8,9,9a,9b,10,11,11a-tetradecahydro-1H-cyclopenta[1,2-a]phenanthrene-6,7-diol] | 0.203 | 0.11 | 184 (≈ 94.8 µg/mL) | –
15 | COc1cccc(C(O)CCC[C@@H](C)[C@H]2CC[C@H]3C4=C(F)C[C@H]5[C@@H](O)[C@@H](O)CC[C@]5(C)[C@H]4CC[C@]23C)c1F (stereo partly drawn) [Compound 64, (1R,3aR,5aR,6R,7S,9aR,9bR,11aR)-4-fluoro-1-[(2R)-6-(2-fluoro-3-methoxyphenyl)-6-hydroxyhexan-2-yl]-9a,11a-dimethyl-2,3,3a,5,5a,6,7,8,9,9a,9b,10,11,11a-tetradecahydro-1H-cyclopenta[1,2-a]phenanthrene-6,7-diol] | 1.16 | 0.318 | – | < 200
